Experimental findings from patent publication US9403812B2, “Triazole derivatives as Wnt signaling pathway inhibitors” (OSLO UNIVERSITY HOSPITAL, HF, priority 2010, dated 2016) are described below.

Structures are written as SMILES.

The subject of one data set is STF/REN HEK293 cells. Nature of the data set: Wnt3a-induced ST-Luc/Renilla luciferase reporter assay in STF/REN HEK293 cells. In kind it is cell-based. As to conditions: Homo sapiens, 24 hours compound in 50% Wnt3a conditioned media, average of multiple experiments. The method, then: HEK293 cells (80,000 cells per well) were seeded in 96-well plates coated with poly-L lysine. 24 hours after seeding, the cells were incubated for an additional 24 hours with various compound concentrations in 50% Wnt3a containing conditioned media (from L Wnt3a-expressing cells (ATCC)). A minimum of three replicates was used for each sample. After compound exposure, the cells were lysed and the firefly luciferase and Renilla activities were measured on a GloMax® 96 Microplate Luminometer with Dual Injectors (Promega).
XLfit (idbs) was used to determine the IC50 values in inhibition experiments. The data were fit to the following formula:
IC50: Langmuir Binding Isotherm: fit=((A+(B*x))+(((C−B)*(1−exp((−1*D)*x)))/D)) res=(y−fit)
All values shown are average values from multiple experiments.

The next data set concerns HT29 cells. The data set is described as follows: IncuCyte cell proliferation assay, HT29. It is filed as cell-based. To be noted: 0.1, 1, 5 μmol/L. The protocol:
(§1) All cells were purchased from ATCC (American Type Culture Collection) and maintained according to the supplier's recommendations. Cells used were RKO, HCT-15, WiDr, HT29, DLD-1, COLO320DM and COLO205 cells. 1,000 cells were seeded in 96-well plates with the recommended media. […] All samples were assessed in a minimum of six replicates. Plates were incubated in an IncuCyte™ (Essen BioScience) inside a cell culture incubator. Images were captured every second hour to monitor cell proliferation. Mutations in the Adenomatouse Polyposis Coli (APC) gene, which occur in most colorectal cancers (CRC), lead to ineffective degradation of β-catenin and aberrant up-regulation of Wnt signaling. As a result, CRC cells may undergo cell cycle arrest as a result of antagonized canonical Wnt. Therefore, the kinetics of cell proliferation was monitored in selected Wnt responsive CRC cell lines by using an IncuCyte life tracking system.

The test system of another data set is DLD-1 cells. The data set is described as follows: IncuCyte cell proliferation assay, DLD-1. To be noted: 0.1, 1, 5 μmol/L. In kind it is cell-based. The protocol: as §1
Another data set addresses T1, PARP1 (Homo sapiens, UniProt P09874).
T1 construct: purchased BPS Bioscience, Nordic Biosite 80551
Nature of the data set: Chemiluminescent Assay Kit, PARP1. In kind it is biochemical.

The next data set relates to β-catenin. The data set is described as follows: Immunostaining of β-catenin in SW480 cells. It is filed as cell-based. As to conditions: 500 nmol/L, 18 hours, immunofluorescence. The protocol: (§2) After incubation, the cells were fixed in 4% PFA in PBS for 10 minutes. Immunostaining was performed as described in standard protocols. Primary antibodies used were β-catenin (610153, BD Transduction Laboratories™) or AXIN2 (76G6, Cell Signaling Technology). Secondary antibodies used were DyLight549 (555) donkey-anti-mouse and Cy2-donkey-anti-rabbit (both Jackson ImmunoResearch, 1:1000). The samples were imaged using a Zeiss Axiovert 200M Fluorescence/Live cell Imaging Microscope at 40 times magnification. A Zeiss LSM780 at 63 times magnification was used for confocal microscopy

A further data set deals with HCT-15 cells. The data set is described as follows: IncuCyte cell proliferation assay, HCT-15. In kind it is cell-based. To be noted: 0.1, 1, 5 μmol/L. The protocol:
as §1

The test system of a further data set is COLO320DM cells. Nature of the data set: IncuCyte cell proliferation assay, COLO320DM. It is filed as cell-based. To be noted: 0.1, 1, 5 μmol/L. The protocol: as §1
A further data set concerns WiDr cells. Nature of the data set: IncuCyte cell proliferation assay, WiDr. To be noted: 0.1, 1, 5 μmol/L. It is filed as cell-based. The protocol: as §1
The next data set relates to RKO cells. Nature of the data set: IncuCyte cell proliferation assay, RKO. As to conditions: RKO (Wnt-independent control, wild type APC); 0.1, 1, 5 μmol/L. In kind it is cell-based. The method, then:
as §1

The subject of a further data set is AXIN2. The data set is described as follows: Immunostaining of AXIN2 in SW480 cells. In kind it is cell-based. To be noted: 0.5 μmol/L, 18 hours, confocal microscopy. The method, then: as §2
The test system of another data set is COLO205 cells. The data set is described as follows: IncuCyte cell proliferation assay, COLO205. To be noted: 0.1, 1, 5 μmol/L. It is filed as cell-based. The method, then: as §1
The nature of data set [1]: Stability in human liver microsomes. In kind it is in vitro ADME. As to conditions: both sexes, pooled human liver microsomes, 0.5 mg/mL protein, 3 μM compound, pH 7.4, 37° C., NADPH, read-out: T ½ human liver microsomes. The method, then:
Pooled human or rat liver microsomes (pooled male and female) were prepared and stored at −80° C. prior to use. […] The final incubation volume was 25 μL. A control incubation was included for each compound tested in which 0.1M phosphate buffer (pH 7.4) was added instead of NADPH (minus NADPH). Two control compounds were included with each species. All incubations were performed singularly for each test compound.
The reactions were stopped by the addition of 50 μL methanol containing internal standard at the appropriate time points. The incubation plates were centrifuged at 2,500 rpm for 20 mins at 4° C. to precipitate the protein.
Following protein precipitation, the sample supernatants were combined in cassettes of up to 4 compounds and analysed using Cyprotex generic LC-MS/MS conditions. […] The time point at which 30-50% of parent had degraded could then be investigated at 3 different levels of metabolite profiling and/or identification.
From a plot of ln peak area ratio (compound peak area/internal standard peak area) against time, the gradient of the line is determined. Subsequently, half-life and intrinsic clearance are calculated using the equations below: Elimination rate constant (k)=(−gradient)
[formula] [formula] • where V=Incubation volume (μL/mg microsomal protein).

T1 sequence (P09874 whole entry): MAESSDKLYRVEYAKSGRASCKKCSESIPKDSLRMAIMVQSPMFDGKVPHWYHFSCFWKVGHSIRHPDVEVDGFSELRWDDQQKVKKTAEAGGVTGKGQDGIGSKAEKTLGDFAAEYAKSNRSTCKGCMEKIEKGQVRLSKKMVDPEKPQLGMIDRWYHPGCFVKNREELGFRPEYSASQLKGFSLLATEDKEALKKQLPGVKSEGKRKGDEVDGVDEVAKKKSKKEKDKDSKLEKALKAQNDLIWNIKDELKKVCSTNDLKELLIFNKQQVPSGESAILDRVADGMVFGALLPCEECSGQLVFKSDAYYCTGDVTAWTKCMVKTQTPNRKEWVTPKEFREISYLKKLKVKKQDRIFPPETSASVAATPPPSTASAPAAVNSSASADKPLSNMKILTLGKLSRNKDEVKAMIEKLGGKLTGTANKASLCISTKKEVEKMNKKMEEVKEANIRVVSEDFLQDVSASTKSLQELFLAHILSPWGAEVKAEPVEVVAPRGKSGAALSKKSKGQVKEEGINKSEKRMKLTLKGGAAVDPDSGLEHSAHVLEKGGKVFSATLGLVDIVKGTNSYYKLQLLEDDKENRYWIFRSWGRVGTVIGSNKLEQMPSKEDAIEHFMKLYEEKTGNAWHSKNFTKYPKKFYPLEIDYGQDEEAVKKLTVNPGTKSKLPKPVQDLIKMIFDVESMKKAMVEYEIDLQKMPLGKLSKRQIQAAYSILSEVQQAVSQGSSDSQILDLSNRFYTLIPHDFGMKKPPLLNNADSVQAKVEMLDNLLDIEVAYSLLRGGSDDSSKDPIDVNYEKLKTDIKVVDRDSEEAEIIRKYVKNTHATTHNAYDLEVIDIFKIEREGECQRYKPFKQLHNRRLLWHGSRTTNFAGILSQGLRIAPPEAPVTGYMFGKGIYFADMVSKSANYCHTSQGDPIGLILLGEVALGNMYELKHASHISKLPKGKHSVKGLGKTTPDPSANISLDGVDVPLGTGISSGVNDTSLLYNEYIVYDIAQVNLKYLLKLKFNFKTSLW

Regarding `COc1cc(C(=O)NNC(=O)/C=C/c2nnc(-c3ccc(F)cc3)n2-c2ccccc2Cl)ccn1` [(7)], the IC50 in the data set on STF/REN HEK293 cells is more than 10000 nM.
As for `CS(=O)(=O)c1ccc(-c2nnc(/C=C/c3nnc(-c4ccc(C#N)cc4)o3)n2-c2ccccc2Cl)nc1` [Compound (10), (E)-4-(5-(2-(4-(2-chlorophenyl)-5-(5-(methylsulfonyl)pyridin-2-yl)-4H-1,2,4-triazol-3-yl)vinyl)-1,3,4-oxadiazol-2-yl)benzonitrile], the IC50 with STF/REN HEK293 cells is 50 nM; on PARP1 (in vitro, table, read-out: IC50 value, PARP), more than 20 µM. Besides, the cell growth inhibition entry with HT29 cells is listed as “dose-dependent growth inhibition”; in the data set with DLD-1 cells it was “dose-dependent growth inhibition”; in the data set with HCT-15 cells, “dose-dependent growth inhibition”; in the data set on COLO320DM cells it was “dose-dependent growth inhibition”; in the data set with WiDr cells, “dose-dependent growth inhibition”; in the data set with RKO cells it was “did not”. Besides, the cell growth inhibition entry with COLO205 cells is listed as “dose-dependent growth inhibition”. For the same compound, at PARP1 (at doses up to 20 μmol/L), the “inhibition of PARP1” value was “no inhibition”. Further, the “nuclear β-catenin” value in the data set on β-catenin is on record as “strong reduction”. Further, the “total β-catenin” value with β-catenin was “general reduction”. Moreover, in the data set with AXIN2, the “levels of cytoplasmic AXIN2” value is reported as “significantly increased”.
On to `CS(=O)(=O)c1ccc(-c2nnc(/C=C/c3nnc(-c4ccc(C#N)cc4)o3)n2-c2ccc(OC(F)(F)F)cc2Cl)nc1` [Compound (56)], for which half-maximal inhibition in the data set on STF/REN HEK293 cells (IC50) required 390 nM.
The compound `COc1cc(-c2nnc(/C=C/c3nnc(-c4ccc(S(C)(=O)=O)cn4)n3-c3ccccc3Cl)o2)ccn1` [Compound (12), 2-(4-(2-chlorophenyl)-5-((E)-2-(5-(2-methoxypyridin-4-yl)-1,3,4-oxadiazol-2-yl)vinyl)-4H-1,2,4-triazol-3-yl)-5-(methylsulfonyl)pyridine] yielded an IC50 in the data set with STF/REN HEK293 cells of 70 nM. Moreover, the half-life at 3 μM in [1] turned out to be 37.1 min.
For `COc1cc(-c2nnc(/C=C/c3nnc(-c4ccncn4)n3-c3ccccc3Cl)o2)ccn1` [Compound (11), 4-(4-(2-chlorophenyl)-5-((E)-2-(5-(2-methoxypyridin-4-yl)-1,3,4-oxadiazol-2-yl)vinyl)-4H-1,2,4-triazol-3-yl)pyrimidine] the same measures were 80 nM and 59.6 min.
For `N#Cc1ccc(-c2nnc(/C=C/c3nnc(-c4ccc(OCC(F)(F)F)cn4)n3-c3ccccc3Cl)o2)cc1` [Compound (57), 4-[5-(2-{4-(2-Chloro-phenyl)-5-[5-(2,2,2-trifluoro-ethoxy)-pyridin-2-yl]-4H-[1,2,4]triazol-3-yl}-vinyl)-[1,3,4]oxadiazol-2-yl]-benzonitrile], half-maximal inhibition in the data set with STF/REN HEK293 cells (IC50) was put at 100 nM.
In turn, `COc1cc(-c2nnc(/C=C/c3nnc(-c4ccncc4)n3-c3ccccc3Cl)o2)ccn1` [Compound (3), 4-(4-(2-chlorophenyl)-5-((E)-2-(5-(2-methoxypyridin-4-yl)-1,3,4-oxadiazol-2-yl)vinyl)-4H-1,2,4-triazol-3-yl)pyridine] displayed an IC50 in the data set with STF/REN HEK293 cells of 190 nM. Also, the half-life at 3 μM in [1] was 37.6 min.
The matching figures for `CS(=O)(=O)c1ccc(-c2nnc(/C=C/c3nnc(-c4ccc(Cl)cc4)o3)n2-c2ccccc2Cl)nc1` [Compound (14), 2-(4-(2-chlorophenyl)-5-((E)-2-(5-(4-chlorophenyl)-1,3,4-oxadiazol-2-yl)vinyl)-4H-1,2,4-triazol-3-yl)-5-(methylsulfonyl)pyridine]: 40 nM and 371 min.
The matching figures for `COc1cc(-c2nnc(/C=C/c3nnc(-c4ccc(Cl)cc4Cl)n3-c3ccccc3Cl)o2)ccn1` [Compound (1), 4-(5-((E)-2-(5-(2,4-dichlorophenyl)-4-(2-chlorophenyl)-4H-1,2,4-triazol-3-yl)vinyl)-1,3,4-oxadiazol-2-yl)-2-methoxypyridine]: 940 nM and 162 min.
`CS(=O)(=O)c1ccc(-c2nnc(C#Cc3nnc(-c4ccc(C#N)cc4)o3)n2-c2ccccc2Cl)nc1` [Compound (33), 4-{5-[4-(2-Chloro-phenyl)-5-(5-methanesulfonyl-pyridin-2-yl)-4H-[1,2,4]triazol-3-ylethynyl]-[1,3,4]oxadiazol-2-yl}-benzonitrile] returned an IC50 with STF/REN HEK293 cells of 3600 nM.
Consider `COc1cc(-c2nnc(/C=C/c3nnc(-c4nc(C)no4)n3-c3ccccc3Cl)o2)ccn1` [Compound (5), 4-(5-((E)-2-(4-(2-chlorophenyl)-5-(3-methyl-1,2,4-oxadiazol-5-yl)-4H-1,2,4-triazol-3-yl)vinyl)-1,3,4-oxadiazol-2-yl)-2-methoxypyridine], for which, in the data set on STF/REN HEK293 cells, the IC50 is more than 10000 nM. Also, the half-life at 3 μM in data set [1] was 5.41 min.
The matching figures for `COc1cc(-c2nnc(/C=C/c3nnc(-c4ccc(F)cc4)n3-c3ccccc3Cl)o2)ccn1` [(6)]: 1200 nM and 48 min.
The matching figures for `COc1cc(-c2nnc(/C=C/c3nnc(-c4ccc(Cl)cn4)n3-c3ccccc3Cl)o2)ccn1` [Compound (4), 5-chloro-2-(4-(2-chlorophenyl)-5-((E)-2-(5-(2-methoxypyridin-4-yl)-1,3,4-oxadiazol-2-yl)vinyl)-4H-1,2,4-triazol-3-yl)pyridine]: 240 nM and 44.9 min.
The matching figures for `CCOc1ccc(-c2nnc(/C=C/c3nnc(-c4ccnc(OC)c4)o3)n2-c2ccccc2Cl)nc1` [Compound (13), 2-(4-(2-chlorophenyl)-5-((E)-2-(5-(2-methoxypyridin-4-yl)-1,3,4-oxadiazol-2-yl)vinyl)-4H-1,2,4-triazol-3-yl)-5-ethoxypyridine]: 110 nM and 212 min.
In the data set with STF/REN HEK293 cells, `CS(=O)(=O)c1ccc(-c2nnc(/C(F)=C(\F)c3nnc(-c4ccc(C#N)cc4)o3)n2-c2ccccc2Cl)nc1` [Compound (58), 4-(5-{2-[4-(2-Chloro-phenyl)-5-(5-methanesulfonyl-pyridin-2-yl)-4H-[1,2,4]triazol-3-yl]-1,2-difluoro-vinyl}-[1,3,4]oxadiazol-2-yl)-benzonitrile] registered an IC50 of more than 10000 nM.
Take `Oc1cc(-c2nnc(/C=C/c3nnc(-c4ccc(F)cc4)n3-c3ccccc3Cl)o2)ccn1` [(8)]: the half-maximal inhibitory concentration (IC50) in the data set on STF/REN HEK293 cells was 6300 nM. Also, the half-life at 3 μM in data set [1] was determined as 128 min.
For `COc1cc(-c2nnc(/C=C/c3nnc(-c4ccc(S(C)(=O)=O)cc4)n3-c3ccccc3Cl)o2)ccn1` [Compound (2), 4-(5-((E)-2-(4-(2-chlorophenyl)-5-(4-(methylsulfonyl)phenyl)-4H-1,2,4-triazol-3-yl)vinyl)-1,3,4-oxadiazol-2-yl)-2-methoxypyridine] the same measures were 280 nM and 224 min.
